In patent US9896445B2, “Heterocyclic inhibitors of ERK1 and ERK2 and their use in the treatment of cancer” (Asana Biosciences, LLC, priority 2015, dated 2018):

Legend:
ERK1 = target: T1, ERK1 (Homo sapiens, UniProt P27361); test: ERK1 HTRF (biochemical) assay
T1 construct: purchased Jubilant Biosys
Procedure: ERK1 and ERK2 HTRF (Biochemical) Assays
These assays employed a homogeneous time resolved fluorescence (HTRF) technique. […] The plate was incubated at room temperature for 60 min with shaking. […] The IC50 values (half maximal inhibitory concentration values) were subsequently determined using a sigmoidal dose-response curve (variable slope) in GraphPad Prism® 5 software.

ERK2 = target: T2, ERK2 (Homo sapiens, UniProt P28482); test: ERK2 HTRF (biochemical) assay
T2 construct: purchased Jubilant Biosys
T2 sequence (P28482 whole entry): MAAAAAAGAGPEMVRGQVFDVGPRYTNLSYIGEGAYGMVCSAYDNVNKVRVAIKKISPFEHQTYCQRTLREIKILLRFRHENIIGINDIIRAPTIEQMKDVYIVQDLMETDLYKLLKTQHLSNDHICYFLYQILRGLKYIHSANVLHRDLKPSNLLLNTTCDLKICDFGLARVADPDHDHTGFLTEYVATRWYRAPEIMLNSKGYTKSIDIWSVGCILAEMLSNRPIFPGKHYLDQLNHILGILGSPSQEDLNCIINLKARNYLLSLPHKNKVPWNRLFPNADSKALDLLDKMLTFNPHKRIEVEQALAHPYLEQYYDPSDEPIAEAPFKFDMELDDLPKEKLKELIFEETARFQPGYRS
Summary of the method: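 Compounds were tested as half-log dilutions from 0.0005 to 10 uM in Tris pH 7.5/MgCl2 buffer, with a substrate mix of 1 uM biotin-MBP peptide and 24 uM ATP and an enzyme mix of 25 nM ERK2. Reaction ran 60 min at room temperature. Phospho-MBP was detected by HTRF (Eu-anti-phospho-MBP/SA-APC, 665/620 nm), and IC50 was fitted with a variable-slope sigmoidal curve.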

T1 sequence (P27361 whole entry): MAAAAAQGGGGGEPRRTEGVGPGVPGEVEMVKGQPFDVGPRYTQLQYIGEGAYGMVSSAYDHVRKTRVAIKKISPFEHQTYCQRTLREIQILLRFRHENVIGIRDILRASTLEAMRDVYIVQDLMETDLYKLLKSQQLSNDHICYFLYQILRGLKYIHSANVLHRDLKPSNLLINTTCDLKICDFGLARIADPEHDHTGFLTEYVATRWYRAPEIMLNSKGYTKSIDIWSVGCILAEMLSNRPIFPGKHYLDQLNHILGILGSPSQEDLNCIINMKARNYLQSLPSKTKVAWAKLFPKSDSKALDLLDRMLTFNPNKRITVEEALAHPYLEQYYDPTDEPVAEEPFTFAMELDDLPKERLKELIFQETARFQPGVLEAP

Row | Compound | IC50 (ERK1; HTRF) | IC50 (ERK2; HTRF) | melting point | IC50 (ERK1; HTRF biochemical assay) | IC50 (ERK2; HTRF biochemical assay)
1 | Cc1cnc(Nc2ccc3c(c2)OCO3)nc1-n1cc(NC(=O)N[C@H](CO)c2ccccc2)cn1 [Compound 55, (S)-1-(1-(2-(benzo[d][1,3]dioxol-5-ylamino)-5-methylpyrimidin-4-yl)-1H-pyrazol-4-yl)-3-(2-hydroxy-1-phenylethyl)urea] | 0.05 to 0.1 µM | 0.05 to 0.1 µM | 208.3 °C |  | 
2 | Cc1cnc(Nc2ccc(F)cc2)cc1-n1ccc(C(=O)NC(CN)c2cccc(Cl)c2)c1 (centres unmarked) [Compound 159, N-(2-Amino-1-(3-chlorophenyl)ethyl)-1-(2-((4-fluorophenyl)amino)-5-methylpyridin-4-yl)-1H-pyrrole-3-carboxamide] | 0.05 to 0.1 µM | ≤ 0.05 µM | 118.1 °C |  | 
3 | Cc1cnc(Nc2ccc(F)cc2)cc1-n1cnc(C(=O)NC(CN)c2ccccc2)c1 (centres unmarked) [Compound 191, N-(2-amino-1-phenylethyl)-1-(2-((4-fluorophenyl)amino)-5-methylpyridin-4-yl)-1H-imidazole-4-carboxamide] | < 0.05 µM | 0.05 to 0.1 µM | 154.7 °C |  | 
4 | Cc1cn(-c2nc(Nc3ccc(F)cc3)ncc2C)cc1C(=O)NC(CO)c1ccccc1 (centres unmarked) [Compound 108, 1-(2-((4-fluoro-phenyl)amino)-5-methylpyrimidin-4-yl)-N-(2-hydroxy-1-phenylethyl)-4-methyl-1H-pyrrole-3-carboxamide] | < 0.05 µM | ≤ 0.05 µM |  |  | 
5 | Cc1cnc(NC2CCOCC2)nc1-n1cnc(C(=O)NCc2cccc(CO)c2Cl)c1 [Example 335, N-(2-chloro-3-(hydroxymethyl)-benzyl)-1-(5-methyl-2-((tetrahydro-2H-pyran-4-yl)amino)-pyrimidin-4-yl)-1H-imidazole-4-carboxamide] |  |  |  | < 0.05 µM | ≤ 0.05 µM
6 | Cc1cnc(NC2CCOCC2)nc1-n1cnc(C(=O)NCc2sccc2CO)c1 [Example 284, N-((3-(hydroxy-methyl)thiophen-2-yl)methyl)-1-(5-methyl-2-((tetrahydro-2H-pyran-4-yl)amino)-pyrimidin-4-yl)-1H-imidazole-4-carboxamide] | < 0.05 µM | ≤ 0.05 µM |  |  | 
7 | CNC[C@@H](NC(=O)c1cn(-c2nc(NC3CCOCC3)ncc2C)cn1)c1cccc(Cl)c1 [Example 326, (S)-N-(1-(3-chlorophenyl)-2-(methylamino)ethyl)-1-(5-methyl-2-((tetrahydro-2H-pyran-4-yl)amino)-pyrimidin-4-yl)-1H-imidazole-4-carboxamide] |  |  |  | < 0.05 µM | ≤ 0.05 µM
8 | Cc1cnc(N[C@H]2CCOC2)nc1-n1cnc(C(=O)N[C@H](CN)c2cccc(Cl)c2)c1 [Example 255, N-((S)-2-amino-1-(3-chlorophenyl)-ethyl)-1-(5-methyl-2-(((S)-tetrahydro-furan-3-yl)amino)-pyrimidin-4-yl)-1H-imidazole-4-carboxamide] | < 0.05 µM | ≤ 0.05 µM |  |  | 
9 | CC(=O)OCc1c(Cl)cccc1CNC(=O)c1cn(-c2nc(NC3CCOCC3)ncc2C)cn1 [Example 340, 2-chloro-6-((1-(5-methyl-2-((tetrahydro-2H-pyran-4-yl)amino)-pyrimidin-4-yl)-1H-imidazole-4-carboxamido)-methyl)benzyl acetate] |  |  |  | < 0.05 µM | ≤ 0.05 µM
10 | Cc1cnc(Nc2ccc3c(c2)OCO3)nc1-n1cc(NC(=O)NC(CO)c2cccc(Cl)c2)cn1 (centres unmarked) [Compound 37, 1-(1-(2-(benzo[d][1,3]dioxol-5-ylamino)-5-methylpyrimidin-4-yl)-1H-pyrazol-4-yl)-3-(1-(3-chlorophenyl)-2-hydroxyethyl)urea] | 0.1 to 0.5 µM | ≤ 0.05 µM |  |  | 
11 | Cc1cccc([C@@H](CO)NC(=O)c2ccn(-c3nc(N[C@H]4CCOC4)ncc3C)c2)n1 [Compound 207, N-((S)-2-hydroxy-1-(6-methylpyridin-2-yl)ethyl)-1-(5-methyl-2-(((S)-tetrahydrofuran-3-yl)amino)pyrimidin-4-yl)-1H-pyrrole-3-carboxamide] | < 0.05 µM | ≤ 0.05 µM |  |  | 
12 | Cc1cnc(Nc2ccc(F)cc2)nc1-n1cnc(C(=O)N[C@@H](CN)c2cccc(Cl)c2)c1 [Compound 249, (R)-N-(2-amino-1-(3-chlorophenyl)-ethyl)-1-(2-((4-fluorophenyl)-amino)-5-methyl-pyrimidin-4-yl)-1H-imidazole-4-carboxamide] | 0.5 to 2.5 µM | 0.1 to 0.5 µM |  |  | 

The remaining lines, values ahead:

Row | IC50 (ERK1; HTRF) | IC50 (ERK2; HTRF) | melting point | IC50 (ERK1; HTRF biochemical assay) | IC50 (ERK2; HTRF biochemical assay) | Compound
13 | < 0.05 µM | ≤ 0.05 µM | 130 °C |  |  | O=C(NC(CO)c1cccc(Cl)c1)c1cn(-c2ccnc(Nc3ccccc3)c2)cn1 (centres unmarked) [Compound 77, N-(1-(3-chlorophenyl)-2-hydroxyethyl)-1-(2-(phenylamino)pyridin-4-yl)-1H-imidazole-4-carboxamide]
14 | < 0.05 µM | ≤ 0.05 µM | 117 °C |  |  | Cc1cnc(N[C@H]2CCOC2)nc1-n1cnc(C(=O)N[C@H](CO)c2cccc(Cl)c2)c1 [Compound 192, N-((S)-1-(3-Chlorophenyl)-2-hydroxyethyl)-1-(5-methyl-2-(((S)-tetra-hydrofuran-3-yl)amino)pyrimidin-4-yl)-1H-imidazole-4-carboxamide]
15 | < 0.05 µM | ≤ 0.05 µM |  |  |  | Cc1cnc(Nc2ccc3c(c2)OCO3)nc1-n1ccc(C(=O)NC(CO)c2cccc(Cl)c2)c1 (centres unmarked) [Compound 42, 1-(2-(benzo[d][1,3]dioxol-5-ylamino)-5-methylpyrimidin-4-yl)-N-(1-(3-chloro-phenyl)-2-hydroxy-ethyl)-1H-pyrrole-3-carboxamide]
16 | < 0.05 µM | ≤ 0.05 µM |  |  |  | Cc1cnc(NC2COC2)nc1-n1cnc(C(=O)N[C@H](CN)c2cccc(Cl)c2)c1 [Example 268, (S)-N-(2-amino-1-(3-chlorophenyl)-ethyl)-1-(5-methyl-2-(oxetan-3-ylamino)pyrimidin-4-yl)-1H-imidazole-4-carboxamide]
17 | < 0.05 µM | ≤ 0.05 µM |  |  |  | O=C(NC(CO)c1ccccc1)c1ccn(-c2nc(Nc3ccc4c(c3)OCO4)ncc2F)c1 (centres unmarked) [Compound 66, 1-(2-(benzo[d][1,3]dioxol-5-ylamino)-5-fluoropyrimidin-4-yl)-N-(2-hydroxy-1-phenylethyl)-1H-pyrrole-3-carboxamide]
18 | < 0.05 µM | ≤ 0.05 µM |  |  |  | Cc1cnc(NC2CC(F)(F)C2)nc1-n1cnc(C(=O)N[C@H](CN)c2cc(F)cc(Cl)c2)c1 [Example 288, (S)-N-(2-amino-1-(3-chloro-5-fluoro-phenyl)ethyl)-1-(2-((3,3-difluoro-cyclobutyl)amino)-5-methylpyrimidin-4-yl)-1H-imidazole-4-carboxamide]
19 | < 0.05 µM | ≤ 0.05 µM |  |  |  | Cc1cnc(Nc2ccc3occc3c2)nc1-n1ccc(C(=O)NC(CO)c2cccc(Cl)c2)c1 (centres unmarked) [Compound 68, 1-(2-(benzofuran-5-ylamino)-5-methylpyrimidin-4-yl)-N-(1-(3-chlorophenyl)-2-hydroxyethyl)-1H-pyrrole-3-carboxamide]
20 | < 0.05 µM | ≤ 0.05 µM |  |  |  | O=C(Nc1cnn(-c2nc(NC3CC3)ncc2F)c1)N[C@H](CO)c1cccc(Cl)c1 [Compound 30, (S)-1-(1-(3-chlorophenyl)-2-hydroxyethyl)-3-(1-(2-(cyclopropyl-amino)-5-fluoro-pyrimidin-4-yl)-1H-pyrazol-4-yl)urea]
21 | 0.05 to 0.1 µM | 0.05 to 0.1 µM |  |  |  | Cc1cnc(N[C@H]2CCOC2)nc1-n1ccc(C(=O)NC(CO)c2ccc(F)cc2)c1 (stereo partly drawn) [Compound 204, N-(1-(4-fluoro-phenyl)-2-hydroxy-ethyl)-1-(5-methyl-2-(((S)-tetrahydro-furan-3-yl)amino)-pyrimidin-4-yl)-1H-pyrrole-3-carboxamide]
22 | < 0.05 µM | ≤ 0.05 µM |  |  |  | Cc1cnc(NC(CO)CO)nc1-n1cnc(C(=O)N[C@H](CO)c2cccc(Cl)c2)c1 [Example 260, (S)-N-(1-(3-chlorophenyl)-2-hydroxyethyl)-1-(2-((1,3-dihydroxy-propan-2-yl)amino)-5-methylpyrimidin-4-yl)-1H-imidazole-4-carboxamide]
23 | > 2.5 µM | > 2.5 µM |  |  |  | Cc1cnc(Nc2ccccc2Cl)nc1-n1cc(NC(=O)NC(CO)c2cccc(Cl)c2)cn1 (centres unmarked) [Compound 43, 1-(1-(3-chlorophenyl)-2-hydroxyethyl)-3-(1-(2-((2-chloro-phenyl)amino)-5-methylpyrimidin-4-yl)-1H-pyrazol-4-yl)urea]
24 | < 0.05 µM | ≤ 0.05 µM |  |  |  | COC[C@@H](NC(=O)c1ccn(-c2nc(Nc3ccc4c(c3)OCO4)ncc2C)c1)c1ccccc1 [Compound 64, (S)-1-(2-(benzo[d][1,3]dioxol-5-ylamino)-5-methylpyrimidin-4-yl)-N-(2-methoxy-1-phenylethyl)-1H-pyrrole-3-carboxamide]
25 | < 0.05 µM | ≤ 0.05 µM |  |  |  | Cc1cn(-c2nc(Nc3ccc(F)cc3)ncc2C)cc1C(=O)NC(CO)c1cccc(Cl)c1 (centres unmarked) [Compound 107, N-(1-(3-chlorophenyl)-2-hydroxyethyl)-1-(2-((4-fluoro-phenyl)amino)-5-methylpyrimidin-4-yl)-4-methyl-1H-pyrrole-3-carboxamide]
26 | 0.1 to 0.5 µM | 0.1 to 0.5 µM |  |  |  | Cc1cnc(Nc2ccc3c(c2)OC(F)(F)O3)cc1-n1cnc(C(=O)NC(CN)Cc2ccccc2)c1 (centres unmarked) [Compound 99, N-(1-amino-3-phenylpropan-2-yl)-1-(2-((2,2-difluorobenzo[d] [1,3]dioxol-5-yl)amino)-5-methylpyridin-4-yl)-1H-imidazole-4-carboxamide]
27 | < 0.05 µM | ≤ 0.05 µM |  |  |  | O=C(NC(CO)c1ccccc1)c1ccn(-c2ccnc(Nc3ccc4c(c3)OCO4)c2)c1 (centres unmarked) [Compound 76, 1-(2-(benzo[d][1,3]dioxol-5-ylamino)pyridin-4-yl)-N-(2-hydroxy-1-phenylethyl)-1H-pyrrole-3-carboxamide]
